biological target: Human FXIa (Homo sapiens (Human), UniProt P03951); experiment: Determination of the % inhibition for FXIa; type: biochemical; conditions: 40 μM test compound, 25° C., substrate Z-Gly-Pro-Arg-AFC
Experimental: Determination of the % inhibition for FXIa
Human FXIa (Enzyme Research Laboratories) was incubated at 25° C. with the fluorogenic substrate Z-Gly-Pro-Arg-AFC and 40 μM of the test compound. Residual enzyme activity (initial rate of reaction) was determined by measuring the change in […].

Human FXIa, sequence (P03951 388-625): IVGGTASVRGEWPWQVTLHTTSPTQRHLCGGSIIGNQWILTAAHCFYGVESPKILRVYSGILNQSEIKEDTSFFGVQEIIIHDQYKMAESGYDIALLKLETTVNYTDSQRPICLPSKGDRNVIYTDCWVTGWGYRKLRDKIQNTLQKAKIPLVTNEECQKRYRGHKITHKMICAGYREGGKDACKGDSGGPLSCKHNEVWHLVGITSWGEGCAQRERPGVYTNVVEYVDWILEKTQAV
Human FXIa, sequence (P03951 19-387 partner): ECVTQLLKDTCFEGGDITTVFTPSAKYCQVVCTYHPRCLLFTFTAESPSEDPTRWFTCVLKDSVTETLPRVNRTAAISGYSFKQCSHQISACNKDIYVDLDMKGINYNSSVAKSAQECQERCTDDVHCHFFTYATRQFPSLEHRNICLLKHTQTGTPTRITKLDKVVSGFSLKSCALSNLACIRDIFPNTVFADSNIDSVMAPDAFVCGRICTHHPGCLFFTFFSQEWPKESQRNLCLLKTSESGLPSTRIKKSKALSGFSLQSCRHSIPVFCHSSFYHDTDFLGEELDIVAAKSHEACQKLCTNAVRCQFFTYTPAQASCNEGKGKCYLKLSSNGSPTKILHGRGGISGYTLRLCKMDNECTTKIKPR

In order of falling “% Inhibition @ 40 μM (human FXIa)” value:
1. COc1cccc(CNC(=O)c2cn(Cc3ccc(Cn4ccccc4=O)cc3)nc2C2CC2)c1F [Example 52, 3-cyclopropyl-N-[(2-fluoro-3-methoxyphenyl)methyl]-1-({4-[(2-oxopyridin-1-yl)methyl]phenyl}methyl)pyrazole-4-carboxamide]  1%
2. Nc1nn(Cc2ccc(Cn3ccccc3=O)cc2)cc1C(=O)NCc1ccc(OC(F)(F)F)cc1 [Example 58, 3-amino-1-({4-[(2-oxopyridin-1-yl)methyl]phenyl}methyl)-N-{[4-(trifluoromethoxy)phenyl]methyl}pyrazole-4-carboxamide]  0%
3. NC(=O)c1cccc(CNC(=O)c2cn(Cc3ccc(Cn4ccccc4=O)cc3)nc2C2CC2)c1 [Example 49, N-[(3-carbamoylphenyl)methyl]-3-cyclopropyl-1-({4-[(2-oxopyridin-1-yl)methyl]phenyl}methyl)pyrazole-4-carboxamide]  0%

From patent US11198691B2, “N-((het)arylmethyl)-heteroaryl-carboxamides compounds as kallikrein inhibitors” (KalVista Pharmaceuticals Limited, priority 2014, dated 2021)
